According to patent US4642355A, “Proline derivatives” (Otsuka Pharmaceutical Factory, Inc., priority 1984, dated 1987):
Where a name gives a salt, the structure may show the parent alone.

Tested on: angiotensin-converting enzyme (ACE)
Assay: ACE inhibitory effect in normotensive rats (inhibition of pressor response to angiotensin I)
Type: in vivo
Conditions: 1 mg/kg directly to the stomach, male Wistar rats, urethane anesthesia, AI/AII ratio
Method: ACE Inhibitory effect in normotensive rats
Male Wistar rats weighing 200 to 400 g were anesthetized by the intraperitoneal injection of urethane (1.25 g/kg) and held in the supine position. The degree of inhibition of pressor response to angiotensin (A) I was determined using these rats. The blood pressure was measured with a femoral artery cannula connected to a transducer (product of Nihon Kohden Kabushiki Kaisha, Japan, Model MPU-0.5-290-0-III) and recorded in terms of a mean blood pressure value through a carrier amplifier (product of Nihon Kohden Kabushiki Kaisha, Japan, Model RP-5) on a multipurpose polygraph (product of Nihon Kohden Kabushiki Kaisha, Japan, Model RM-85). The rats were set in an experimental device and left therein for 1 hour to stabilize the hemodynamics. Then experiments were commenced. Since the magnitude of the pressor response to AI varies with time, the ratio of the responses to AI and AII (AI/AII ratio) was used to determine the magnitude of the pressor response to AI which ratio remained more constant. Through the cannulated femoral vein, AI (300 ng/kg) was administered first and AII (300 ng/kg) was given in 5 minutes to measure an AI/AII ratio. At 30 minutes after the first administration of AI, AI (300 ng/kg) was similarly administered and AII (300 ng/kg) was given in 5 minutes, followed by measuring an AI/AII ratio. This procedure was repeated until a constant value of AI/AII ratio was obtained. (The mean value of AI/AII ratios each resulting from the repeated procedure is represented as "C" in an equation to be shown later). At 10 minutes after the final administration of AII, an aqueous solution containing 1 mg/kg of each test compound was given directly to the stomach through a vinyl tube. At 10 minutes after administration of the test compound, AI (300 ng/kg) was given and at 5 minutes later, AII (300 ng/kg) was administered, followed by measurement of the AI/AII ratio (which was represented as "E" in the following equation). An ACE percent inhibition was calculated according to the equation indicated below. [formula]
Subsequently at each time of 60, 120 and 240 minutes after the administration of the test compound, AI (300 ng/kg) was given in the same manner as above and AII (300 ng/kg) was administered in 5 minutes, whereupon an ACE percent inhibition was calculated in the same way.
The results are shown below in Table 26 in which the test compounds listed are those prepared in the Examples indicated therein.

[1] = 15 min. after administration, 1 mg/kg
[2] = 60 min. after administration, 1 mg/kg
[3] = 120 min. after administration, 1 mg/kg
[4] = 240 min. after administration, 1 mg/kg

CCCCCC(SC[C@H](NC(C)C(=O)N1CCC[C@H]1C(=O)O)C(=O)OCC)C(=O)OCC (stereo partly drawn) [Ex. No. 67*^1]
ACE Percent Inhibition, mean ± SD [1]: 23 ± 35%
ACE Percent Inhibition, mean ± SD (15 min. after administration, listed as Ex. No. 67*^2, 1 mg/kg): 46 ± 29%
ACE Percent Inhibition, mean ± SD [2]: 55 ± 11%
ACE Percent Inhibition, mean ± SD (60 min. after administration, listed as Ex. No. 67*^2, 1 mg/kg): 76 ± 10%
ACE Percent Inhibition, mean ± SD [3]: 59 ± 4%
ACE Percent Inhibition, mean ± SD (120 min. after administration, listed as Ex. No. 67*^2, 1 mg/kg): 61 ± 14%
ACE Percent Inhibition, mean ± SD [4]: 63 ± 9%
ACE Percent Inhibition, mean ± SD (240 min. after administration, listed as Ex. No. 67*^2, 1 mg/kg): 65 ± 7%

CCCCCCC(SC[C@H](NC(C)C(=O)N1CCC[C@H]1C(=O)O)C(=O)OCC)C(=O)OCC (stereo partly drawn) [Ex. No. 71*^4]
ACE Percent Inhibition, mean ± SD [1]: 47 ± 24%
ACE Percent Inhibition, mean ± SD [2]: 69 ± 6%
ACE Percent Inhibition, mean ± SD [3]: 70 ± 10%
ACE Percent Inhibition, mean ± SD [4]: 60 ± 10%

CCCCCCC(SC[C@H](NC(C)C(=O)N1CCC[C@H]1C(=O)O)C(=O)OCC)C(=O)OCC (stereo partly drawn) [Ex. No. 71*^ 3]
ACE Percent Inhibition, mean ± SD [1]: 39 ± 34%
ACE Percent Inhibition, mean ± SD [2]: 65 ± 14%
ACE Percent Inhibition, mean ± SD [3]: 60 ± 2%
ACE Percent Inhibition, mean ± SD [4]: 67 ± 3%

CCCCCCSC[C@H](NC(C)C(=O)N1CCC[C@H]1C(=O)O)C(=O)OCC (stereo partly drawn) [Example 5, N-[(R)-1-ethoxycarbonyl-2-hexylthioethyl]-alanyl-(S)-proline(β-isomer) and L-arginine salt thereof]
ACE Percent Inhibition, mean ± SD (15 min. after administration): 28 ± 14%
ACE Percent Inhibition, mean ± SD (60 min. after administration): 54 ± 3%
ACE Percent Inhibition, mean ± SD (120 min. after administration): 54 ± 17%
ACE Percent Inhibition, mean ± SD (240 min. after administration): 55 ± 7%

CCCCCCCSC[C@H](NC(C)C(=O)N1CCC[C@H]1C(=O)O)C(=O)OCC (stereo partly drawn) [Example 18, N-[(R)-1-ethoxycarbonyl-2-heptylthioethyl]-alanyl-(S)-proline (β-isomer) and maleate]
ACE Percent Inhibition, mean ± SD (15 min. after administration): 77 ± 8%
ACE Percent Inhibition, mean ± SD (60 min. after administration): 75 ± 23%
ACE Percent Inhibition, mean ± SD (120 min. after administration): 84 ± 10%
ACE Percent Inhibition, mean ± SD (240 min. after administration): 63 ± 6%

CCOC(=O)[C@H](CSCC1CCCCC1)NC(C)C(=O)N1CCC[C@H]1C(=O)O (stereo partly drawn) [Example 21]
ACE Percent Inhibition, mean ± SD (15 min. after administration): 22 ± 25%
ACE Percent Inhibition, mean ± SD (60 min. after administration): 38 ± 29%
ACE Percent Inhibition, mean ± SD (120 min. after administration): 58 ± 15%
ACE Percent Inhibition, mean ± SD (240 min. after administration): 56 ± 14%

CCOC(=O)[C@H](CSCC=C(C)C)NC(C)C(=O)N1CCC[C@H]1C(=O)O (stereo partly drawn) [Example 32]
ACE Percent Inhibition, mean ± SD (15 min. after administration): 15 ± 9%
ACE Percent Inhibition, mean ± SD (60 min. after administration): 31 ± 7%
ACE Percent Inhibition, mean ± SD (120 min. after administration): 33 ± 9%
ACE Percent Inhibition, mean ± SD (240 min. after administration): 29 ± 8%

CCCCCCCSC[C@H](NC(C)C(=O)N1CCC[C@H]1C(=O)OC)C(=O)OCC (stereo partly drawn) [Example 39]
ACE Percent Inhibition, mean ± SD (15 min. after administration): 39 ± 59%
ACE Percent Inhibition, mean ± SD (60 min. after administration): 79 ± 30%
ACE Percent Inhibition, mean ± SD (120 min. after administration): 76 ± 5%
ACE Percent Inhibition, mean ± SD (240 min. after administration): 88 ± 3%

CCCCCCCSC[C@H](NC(C)C(=O)N1CCC[C@H]1C(=O)OCC)C(=O)OCC (stereo partly drawn) [Example 40]
ACE Percent Inhibition, mean ± SD (15 min. after administration): 37 ± 19%
ACE Percent Inhibition, mean ± SD (60 min. after administration): 55 ± 18%
ACE Percent Inhibition, mean ± SD (120 min. after administration): 57 ± 13%
ACE Percent Inhibition, mean ± SD (240 min. after administration): 70 ± 9%

CCCCCCCSC[C@H](NC(C)C(=O)N1CCC[C@H]1C(=O)OCc1ccccc1)C(=O)OCC (stereo partly drawn) [Example 42]
ACE Percent Inhibition, mean ± SD (15 min. after administration): 27 ± 1%
ACE Percent Inhibition, mean ± SD (60 min. after administration): 17 ± 18%
ACE Percent Inhibition, mean ± SD (120 min. after administration): 57 ± 7%
ACE Percent Inhibition, mean ± SD (240 min. after administration): 66 ± 7%

CCCCCCCCSC[C@H](NC(C)C(=O)N1CCC[C@H]1C(=O)O)C(=O)OCC (stereo partly drawn) [Example 81, N-[(R)-1-ethoxycarbonyl-2-octylthio-ethyl]-alanyl-(S)-proline (β-isomer).L-arginine salt]
ACE Percent Inhibition, mean ± SD (15 min. after administration): 14 ± 17%
ACE Percent Inhibition, mean ± SD (60 min. after administration): 43 ± 18%
ACE Percent Inhibition, mean ± SD (120 min. after administration): 47 ± 11%
ACE Percent Inhibition, mean ± SD (240 min. after administration): 55 ± 6%
